SMILES | logP
COc1ncnc2c1ncn2[C@@H]1O[C@H](CO)[C@@H](OC(=O)C(C)(C)C)[C@@H]1OC(=O)C(C)(C)C | 3.61
COc1ccc(C(=O)OC[C@H]2O[C@@H](n3cnc4c(OC)ncnc43)[C@@H](OC(=O)c3ccc(OC)cc3)[C@@H]2O)cc1 | 3.65
COc1ncnc2c1ncn2[C@@H]1O[C@H](CO)[C@@H](OC(=O)C(C)C)[C@@H]1OC(=O)C(C)C | 2.82
COc1ncnc2c1ncn2[C@@H]1O[C@H](COC(=O)C(C)C)[C@@H](OC(=O)C(C)C)[C@@H]1O | 3.63
COc1ncnc2c1ncn2[C@@H]1O[C@H](CO)[C@@H](O)[C@@H]1O | 0.5
CCC(=O)OC[C@H]1O[C@@H](n2cnc3c(OC)ncnc32)[C@@H](O)[C@@H]1OC(=O)CC | 2.7
CCC(=O)O[C@H]1[C@H](OC(=O)CC)[C@@H](CO)O[C@H]1n1cnc2c(OC)ncnc21 | 2.07
COc1ncnc2c1ncn2[C@@H]1O[C@H](COC(C)=O)[C@@H](O)[C@@H]1OC(C)=O | 1.4
COc1ncnc2c1ncn2[C@@H]1O[C@H](COC(=O)C(C)(C)C)[C@@H](O)[C@@H]1OC(=O)C(C)(C)C | 3.4
COc1ncnc2c1ncn2[C@@H]1O[C@H](COC(C)=O)[C@@H](OC(C)=O)[C@@H]1OC(C)=O | 1.93
COc1ncnc2c1ncn2[C@@H]1O[C@H](CO)[C@@H](OC(=O)Cc2ccccc2)[C@@H]1OC(=O)Cc1ccccc1 | 3.48
COc1ncnc2c1ncn2[C@@H]1O[C@H](COC(=O)c2ccccc2)[C@@H](O)[C@@H]1OC(=O)c1ccccc1 | 3.39
COc1ncnc2c1ncn2[C@@H]1O[C@H](CO)[C@@H](OC(=O)c2ccccc2)[C@@H]1OC(=O)c1ccccc1 | 3.71
COc1ncnc2c1ncn2[C@@H]1O[C@H](CO)[C@@H](OC(=O)COc2ccccc2)[C@@H]1OC(=O)COc1ccccc1 | 3.4
COc1ncnc2c1ncn2[C@@H]1O[C@H](COC(=O)COc2ccccc2)[C@@H](OC(=O)COc2ccccc2)[C@@H]1O | 4.06
COc1ncnc2c1ncn2[C@@H]1O[C@H](COC(=O)C(C)C)[C@@H](O)[C@@H]1OC(=O)C(C)C | 2.7
CCCC(=O)OC[C@H]1O[C@@H](n2cnc3c(OC)ncnc32)[C@@H](O)[C@@H]1OC(=O)CCC | 3.67
CCCCC(=O)O[C@H]1[C@H](OC(=O)CCCC)[C@@H](CO)O[C@H]1n1cnc2c(OC)ncnc21 | 3.83
COc1ncnc2c1ncn2[C@@H]1O[C@H](COC(=O)Cc2ccccc2)[C@@H](OC(=O)Cc2ccccc2)[C@@H]1O | 4.37
COc1ncnc2c1ncn2[C@@H]1O[C@H](COC(C)=O)[C@@H](OC(C)=O)[C@@H]1O | 1.75
COc1ncnc2c1ncn2[C@@H]1O[C@H](CO)[C@@H](OC(C)=O)[C@@H]1OC(C)=O | 1.33
CCCCC(=O)OC[C@H]1O[C@@H](n2cnc3c(OC)ncnc32)[C@@H](OC(=O)CCCC)[C@@H]1O | 3.58
CCCC(=O)OC1C(CO)OC(n2cnc3c(OC)ncnc32)C1OC(=O)CCC (stereo not given) | 2.9
COc1ncnc2c1ncn2[C@@H]1O[C@H](COS(C)(=O)=O)[C@@H](OS(C)(=O)=O)[C@@H]1OS(C)(=O)=O | 0.58
CCC(=O)OC[C@H]1O[C@@H](n2cnc3c(OC)ncnc32)[C@@H](OC(=O)CC)[C@@H]1OC(=O)CC | 2.75
